The assay has as its target T1, human FAAH-1 (Homo sapiens, UniProt O00519).
T1 sequence (O00519 1-579): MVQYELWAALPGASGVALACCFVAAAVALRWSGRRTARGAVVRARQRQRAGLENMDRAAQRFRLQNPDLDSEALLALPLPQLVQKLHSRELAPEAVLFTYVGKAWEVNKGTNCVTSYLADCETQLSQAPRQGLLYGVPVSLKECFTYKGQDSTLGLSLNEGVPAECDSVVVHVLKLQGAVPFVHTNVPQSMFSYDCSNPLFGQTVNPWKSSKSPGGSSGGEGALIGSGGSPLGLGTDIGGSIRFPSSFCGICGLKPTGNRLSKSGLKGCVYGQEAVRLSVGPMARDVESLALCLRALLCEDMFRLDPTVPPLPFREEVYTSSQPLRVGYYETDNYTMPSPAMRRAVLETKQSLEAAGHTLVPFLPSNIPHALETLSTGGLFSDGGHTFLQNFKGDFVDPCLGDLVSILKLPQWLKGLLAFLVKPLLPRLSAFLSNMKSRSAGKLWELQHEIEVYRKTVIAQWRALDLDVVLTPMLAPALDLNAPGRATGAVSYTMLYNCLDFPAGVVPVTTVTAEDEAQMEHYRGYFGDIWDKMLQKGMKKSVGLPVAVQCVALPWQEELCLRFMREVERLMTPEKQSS
The assay is described as follows: Whole cell anandamide hydrolysis assay (HeLa clone 5c5 transfected with human FAAH-1). Format: cell-based. The settings on record: HeLa clone 5c5 expressing human FAAH-1; read-out: human FAAH whole cell IC50. Here is the method:
FAAH activity was assayed in whole cells using methods disclosed previously (Maccarone et al., 1998 J Biol. Chem. 273:32332 and Bisogno et al., 1997 J Biol. Chem. 272:3315). In addition to the cell lines described in Maccarone et al. and Bisogno et al., MCF7 (ATCC designation HTB-22) and T84 (ATCC designation CCL-248) cell lines were also used in these assays.
cDNA expression clone for human FAAH-1 (in pcDNA3 vector) (Genbank Accession U82535; obtained from Benjamin Cravatt, Scripps Research Institute, La Jolla, Calif.) was linearized by digestion with BglII (New England Biolabs) and transfected by calcium phosphate into human HeLa cells (ATCC catalog #CCL-2). […] Following transfection, a stable HeLa-derived clone, designated 5c5, was isolated by single colony purification and expanded and maintained in modified Eagles medium (MEM; VWR catalog #45000-300) containing 10% fetal bovine serum (FBS), 2 mM L-glutamine, and 0.5 mg/mL G-418 (Sigma catalog #G5013).
Clone 5c5 (50,000 cells in 150 μL) was seeded into 96-well plates and incubated overnight (5% CO2, 37° C.). Media was carefully replaced with 180 μL DMEM/F12 medium (VWR catalog #45000-350) containing 15 mM HEPES, pH 7.4 and 0.1% fatty acid free BSA (Sigma catalog #A0281). Then, 2 μL of 100× desired final concentrations of certain exemplary compounds described herein were made up in DMSO, added to wells containing cells, and plates were incubated at 37° C. for 10 min. Next, 20 μL of 5 μM anandamide (Cayman catalog #90050) spiked with 8 μCi of anandamide-(ethanolamine-1-[^3H]) (American Radiolabeled Chemicals, Inc., catalog #ART 626) was added to the cells and the plates were incubated for an additional 15 min at 37° C. The reactions were terminated by chilling the plates on ice and adding 20 μL of 0.5M of potassium phosphate buffer (adjusted to pH 2.1 with phosphoric acid).
The acidified reactions were transferred to 96-well filter plates (0.25 mL capacity/well, 1.2 micron glass fiber pre-filter packed above 0.65 micron pore-size PVDF membrane, Millipore catalog MSFCN6B50) containing 25 μL charcoal (neutral activated carbon, Fisher Scientific catalog C170-500) per well. Prior to the assay, charcoal was measured and loaded onto the plate using an aluminum 96-well column loading device (Millipore catalog MACL09625). The filter plate was assembled over an empty 96-well plate (Costar) using a centrifuge alignment frame (Millipore catalog MACF09604) to allow for collection of the filtrate in the receiver plate. The charcoal glass-fiber filter plates were pre-washed with methanol by centrifugation 650×g for 10 min). Next, 80 μL of water was added to the wells of the pre-washed 96 well charcoal filter plate. Then, 90 μL of the acidified reaction mixture was added to the water in the wells of the charcoal plate. The samples were centrifuged as above. The substrate remained bound to the charcoal, whereas the [^3H]-ethanolamine product formed flowed through and was transferred to the microplates containing scintillation cocktail and quantified in a micro-plate scintillation counter (Perkin-Elmer Microbeta). Control reactions with either no cells or cells treated with DMSO alone were performed in triplicate and used to define background (no cells) and 100% activity (DMSO alone).
Following subtraction of background radioactivity, data were expressed as percent inhibition relative to 100% activity and fit with a nonlinear regression curve using GraphPad Prism Software (GraphPad Software Inc). IC50 values were calculated from the resulting dose-response curves constrained at top and bottom to 100% and 0%, respectively.

Structures are written as SMILES. pIC50: −log10 of the molar value.

In the case of `COc1cc(NC(=O)C(=O)c2c(C)n(Cc3ccc(Cl)cc3)c3ccc(OC)c(OC)c23)ccn1` [Compound 56, 2-(1-(4-chlorobenzyl)-4,5-dimethoxy-2-methyl-1H-indol-3-yl)-N-(2-methoxypyridin-4-yl)-2-oxoacetamide], the pIC50 – broadly, −log10 of the IC50, conventionally taken in molar units – was 6.00 to 7.00. Turning to `COc1ccc(Cn2c(C)c(C(=O)C(=O)Nc3ccnc(OC)c3)c3cc(OC)cnc32)nc1` [Compound 40, 2-(5-methoxy-1-((5-methoxypyridin-2-yl)methyl)-2-methyl-1H-pyrrolo[2,3-b]pyridin-3-yl)-N-(2-methoxypyridin-4-yl)-2-oxoacetamide], the pIC50 was greater than 7.00. To `COc1cc(NC(=O)C(=O)c2c(C)n(Cc3ccc(Cl)cn3)c3cc(F)c(OC)cc23)ccn1` [Compound 64, 2-(1-((5-chloropyridin-2-yl)methyl)-6-fluoro-5-methoxy-2-methyl-1H-indol-3-yl)-N-(2-methoxypyridin-4-yl)-2-oxoacetamide] belongs greater than 7.00; to `COc1cnc2c(c1)c(C(=O)C(=O)Nc1ccnc(OC)c1)c(C)n2Cc1ccc(Cl)cn1` [Compound 41, 2-(1-((5-chloropyridin-2-yl)methyl)-5-methoxy-2-methyl-1H-pyrrolo[2,3-b]pyridin-3-yl)-N-(2-methoxypyridin-4-yl)-2-oxoacetamide], greater than 7.00; to `COc1ccc(Cn2c(C)c(C(=O)C(=O)Nc3ccnc(OC)c3)c3cc(OC)ccc32)nc1` [Compound 43, 2-(5-methoxy-1-((5-methoxypyridin-2-yl)methyl)-2-methyl-1H-indol-3-yl)-N-(2-methoxypyridin-4-yl)-2-oxoacetamide], greater than 7.00.

Take `COc1cc(NC(=O)C(=O)c2c(C)n(Cc3ccc(Cl)cc3)c3cnccc23)ccn1` [Compound 35, 2-(1-(4-chlorobenzyl)-2-methyl-1H-pyrrolo[2,3-c]pyridin-3-yl)-N-(2-methoxypyridin-4-yl)-2-oxoacetamide]: the pIC50 was greater than 7.00. The result for `COc1cc(NC(=O)C(=O)c2c(C)n(Cc3ccc(Cl)cc3)c3cc(F)c(OC)cc23)ccn1` [Compound 72, 2-(1-(4-chlorobenzyl)-6-fluoro-5-methoxy-2-methyl-1H-indol-3-yl)-N-(2-methoxypyridin-4-yl)-2-oxoacetamide] reads greater than 7.00. To `COc1cc(NC(=O)C(=O)c2c(C)n(Cc3ccc(Cl)cn3)c3ccc([N+](=O)[O-])cc23)ccn1` [Compound 62, 2-(1-((5-chloropyridin-2-yl)methyl)-2-methyl-5-nitro-1H-indol-3-yl)-N-(2-methoxypyridin-4-yl)-2-oxoacetamide] belongs greater than 7.00. For the compound `COc1cc(NC(=O)C(=O)c2c(C)n(Cc3ccc(Cl)cn3)c3ccccc23)ccn1` [Compound 68, 2-(1-((5-chloropyridin-2-yl)methyl)-2-methyl-1H-indol-3-yl)-N-(2-methoxypyridin-4-yl)-2-oxoacetamide], the pIC50 was greater than 7.00. As to `COc1ccc(Cn2c(C)c(C(=O)C(=O)Nc3ccnc(OC)c3)c3cc(OC)c(C)cc32)nc1` [Compound 96, 2-(5-methoxy-1-((5-methoxypyridin-2-yl)methyl)-2,6-dimethyl-1H-indol-3-yl)-N-(2-methoxypyridin-4-yl)-2-oxoacetamide], the pIC50 was greater than 7.00. Regarding `COc1cc(NC(=O)C(=O)c2c(C)n(Cc3ncc(Cl)cc3F)c3cc(Cl)c(OC)cc23)ccn1` [Compound 97, 2-(6-chloro-1-((5-chloro-3-fluoropyridin-2-yl)methyl)-5-methoxy-2-methyl-1H-indol-3-yl)-N-(2-methoxypyridin-4-yl)-2-oxoacetamide], the pIC50 is greater than 7.00. For `COc1ccc2c(c1)c(C(=O)C(=O)Nc1ccnc(OC)c1)c(C)n2Cc1ccccn1` [Compound 77, 2-(5-methoxy-2-methyl-1-(pyridin-2-ylmethyl)-1H-indol-3-yl)-N-(2-methoxypyridin-4-yl)-2-oxoacetamide], the pIC50 is greater than 7.00. For `COc1cc(NC(=O)C(=O)c2c(C)n(Cc3ccc(Cl)cc3)c3c(OC)cccc23)ccn1` [Compound 51, 2-(1-(4-chlorobenzyl)-7-methoxy-2-methyl-1H-indol-3-yl)-N-(2-methoxypyridin-4-yl)-2-oxoacetamide], the pIC50 is 6.00 to 7.00.
